Where “and” joins values, the source holds several entries; their conditions need not be identical. Equal values may be shown once.
Tests used:
[1] = tested on: ApoE^–/– mice on an HFD; assay: Inflammatory cytokines in plasma (LEGENDPlex); type: in vivo, mouse; design: Plasma LegendPlex IFNy / Plasma LegendPlex IL-1B / Plasma LegendPlex IL-6: unit not given here
Procedure: SerBut water was pH adjusted using 10 M NaOH to a final pH of 7.4. […] After 6 weeks, mice were euthanized. […] The liver was harvested and part was homogenized in tissue protein extraction reagent buffer (Invitrogen, 78510) supplemented with protease inhibitor mini tablets (Thermo Fisher Scientific, PIA32955) for Western blotting and qPCR. […] Blood chemical analysis was performed on an Alfa […] Chemistry Analyzer. Reagent kits from Alfa Wasserman were used according to manufacturer's instructions to analyze plasma: lipase (catalog SA1045), HDL-C (catalog SA2038, LDL-C (catalog SA1040), AST (catalog SA1053), ALT (catalog SA1052). A LEGENDPlex was utilized to analyze the concentrations of inflammatory cytokines (BioLegend).

[2] = tested on: RAW 264.7 macrophages; assay: LEGENDPlex cytokines in supernatant of LPS-stimulated RAW 264.7; type: cell-based; design: TNFa (Legendplex) / MCP-1 (Legendplex) / IL-10 (Legendplex) / IL-6 (Legendplex): unit not given here
Procedure: RAW 264.7 (ATCC, TIB-71) macrophages were cultured at 37°C and 5% CO2 in DMEM (Gibco) supplemented with 1 mM HEPES, 1 mM sodium pyruvate, 10% FBS, and penicillin/streptomycin. Cells were plated in round-bottom 96-well plates at 100,000 cells per well and incubated with different concentrations of either NaBut or SerBut (0.15–12 mM) for 24 hours. Cells were then rinsed with PBS and then stimulated with 200 ng/mL LPS in media for 6 hours. The cell culture supernatant was collected and analyzed by LEGENDPlex to analyze the concentrations of cytokines (BioLegend). Cell phenotype was analyzed using flow cytometry (Cytek Aurora).

[3] = LC-MS/MS of free butyrate in solution of fresh and aged SerBut
Procedure: To investigate stability, we repeated the experiment with SerBut in FBS-supplemented complete media stored for 1 month at 37°C (Figure 1B).
(B) LC-MS/MS analysis of free butyrate in solution of aged SerBut (incubated at 37°C in FBS-supplemented media for 1 month) and freshly dissolved SerBut and NaBut. (C) NF-κB activity of RAW Blue reporter cells upon treatment with the indicated concentrations of SerBut or NaBut for 24 hours followed by stimulation with 200 ng/mL LPS for 6 hours. (D–J) RAW 264.7 cells treated for 24 hours with the indicated concentrations of SerBut or NaBut followed by stimulation with 200 ng/mL LPS for 6 hours. (D–E) Mean fluorescence intensity (MFI) of iNOS^+ or CD80^+ RAW 264.7 cells analyzed by flow cytometry. (F–J) Cytokine concentrations in the cell culture supernatant of RAW 264.7 cells. “x” indicates untreated group. In A, n = 3 per group representing technical replicates. In B, n = 3 freshly prepared samples per 2 distinct experiments pooled for aged SerBut and NaBut groups, while fresh the SerBut group represents a single experiment. One sample in the aged SerBut group and 2 samples in the NaBut group were lost due to filtering malfunctions or LC-MS/MS autosampling malfunctions. In C, n = 6 technical replicates. Data represent mean ± SEM. […] In A, 2-way ANOVA was performed.
Samples were prepared and derivatized as described previously ([28]). Stock solutions were prepared in water/acetonitrile (ACN) (1:1 v/v): 3-nitrophenylhydrazine (NPH), and 1-ethyl-3-(3-dimethylaminopropyl)carbodiimide (EDC) (in 1% pyridine). The internal standard, 4-methylvaleric acid, was added. Samples were mixed with NPH and EDC stocks at a 1:1:1 volume ratio. The mixture was heated in a heating block at 60°C for 30 minutes. Samples were filtered through 0.22 μm filters and stored at 4°C before analysis.
Both derivatized butyrate-NPH and 4-methylvaleric-NPH were detected in negative mode. Column: Thermo Fisher Scientific C18 4.6 × 50 mm, 1.8 μm particle size, at room temperature. Mobile phase A: water with 0.1% v/v formic acid. Mobile phase B: ACN with 0.1% v/v formic acid. Injection volume: 5.0 μL. Flow rate: 0.5 mL/min. […] The MS conditions were optimized using pure butyrate-NPH or 4-methylvaleric-NPH at 1 mM. […] The ratio between MRM of butyrate and 4-methylvaleric acid was used to quantify butyrate concentration.

[4] = tested on: ApoE^–/– mice on an HFD; assay: Flow cytometry of blood, lymph nodes and spleen; type: in vivo, mouse; design: Treg / Th17 / F480+CD11b+ Macrophages / iNOS+ Macs / Arg1+ Macs: unit not given here
Procedure: SerBut water was pH adjusted using 10 M NaOH to a final pH of 7.4. […] After 6 weeks, mice were euthanized. The lMLNs, ILNs, spleen, heart, and aorta were harvested and processed for flow cytometry analysis ([67]). […] The remaining liver was fixed with 4% paraformaldehyde and embedded in paraffin for histological analysis.
Flow cytometry was performed using a BD LSRFortessa or a Cytek Aurora full-spectrum cytometer.

[5] = tested on: RAW 264.7 macrophages; assay: Cell viability assay (MTS); type: cell-based; conditions: for Viability: 24 hours
Procedure: CellTiter 96 AQueous one Solution Cell Proliferation Assay (MTS) (Promega, G3582) was used according to the manufacturer’s instructions to analyze cytotoxicity of SerBut and NaBut at various concentrations (0.15–12 mM) in RAW 264.7 macrophages. Viability values were normalized to untreated cells (100%) and Triton X-100–treated cells (0%). Since absorbance is directly proportional to the number of living cells in culture, values greater than 100% indicate cell growth compared with controls.

[6] = Inguinal Lymph Node Flow, individual mice
[7] = Mesenteric Lymph Node Flow, individual mice

relative concentration of free butyrate on storage ([3]; FBS-supplemented complete media, 1 month at 37°C): did not change | share of sample that was free butyrate ([3]; at the time of measurement): approximately 10% | Butyrate Release by LCMS-MS (free butyrate) ([3]; freshly dissolved): 0.483 and 0.4832 and 0.4596
SMILES: CCCC(=O)OC[C@H](N)C(=O)O [SerBut, O-butyryl-L-serine]
plasma IL-1β ([1]; 6 weeks): trend toward reduction | IL-6 and IFN-γ in plasma ([1]; 6 weeks, compared with control groups): reduced | Plasma LegendPlex IFNy ([1]; plasma, individual mice): 1.54 and 21.65 and 44.82 and 28.44 and 36.42 | Plasma LegendPlex IL-1B ([1]; plasma, individual mice): 1.73 and 1.26 and 21.47 and 0.83 and 1.61 and 1.04 and 1.97 and 2.89 and 4.7 | Plasma LegendPlex IL-6 ([1]; plasma, individual mice): 1.18 and 0.95 and 0.92 and 0.99 and 2.99 | TNFa (Legendplex) ([2]; 1.3 mM 24 h, then LPS 6 h): 4133.05 and 4500 and 3675.16 and 3268.68 and 3195.27 and 3191.26 | TNFa (Legendplex) ([2]; 4 mM 24 h, then LPS 6 h): 3513.15 and 3456.91 and 3852.76 and 3385.25 and 3103.2 and 3863.3 | TNFa (Legendplex) ([2]; 12 mM 24 h, then 200 ng/mL LPS 6 h): 1963.6 and 2002.31 and 2185.35 and 1388.16 and 2487.75 and 2408.88 | production of IL-6, MCP-1 and GM-CSF ([2]; 12 mM, as effectively as 1.3 mM NaBut): suppressed NF-κB–regulated production of proinflammatory cytokines | IL-10 ([2]; compared with LPS-stimulated controls): trending increase | Butyrate Release by LCMS-MS (free butyrate) ([3]; aged: 37°C in FBS-supplemented media for 1 month, listed as Aged SerBut): 0.457 and 0.4771 and 0.4543 and 0.3155 and 0.3079 | frequency of circulating Ly6G^+CD11b^+ neutrophils ([4]; 6 weeks, compared with both NaBut- and water-treated controls): significantly reduced | Arg1+ Macs [4, 6]: 3.53 and 2.72 and 2.64 and 3.19 and 3.9 and 5.62 and 3.61 and 5.94 and 4.82 and 4.83 and 3.4 and 2.08 and 3.78 and 5.04 | F480+CD11b+ Macrophages [4, 6]: 0.56 and 0.54 and 0.36 and 0.83 and 0.61 and 1.4 and 0.33 and 0.64 and 0.46 and 0.86 and 0.43 and 0.29 | Th17 [4, 6]: 7.49 and 5.92 and 1.67 and 2.37 and 3.33 and 2.23 and 8.03 and 16.8 and 2.7 | Th17/Treg [4, 6]: 0.5095 and 0.3947 and 0.09489 and 0.1274 and 0.2068 and 0.1161 and 0.4294 and 1.037 and 0.1588 | Treg [4, 6]: 14.7 and 15 and 17.6 and 18.6 and 16.1 and 19.2 and 18.7 and 16.2 and 17 | iNOS+ Macs [4, 6]: 5.43 and 3.21 and 3.87 and 2.26 and 2.24 and 2.49 and 6.09 and 2.15 and 4.59 and 2.91 and 7.23 and 2.89 and 7.07 and 5.7 | Th17/Treg cell ratio ([4]; MLNs and spleen): reduced the Th17/Treg cell ratio | iNOS^+ of CD11b^+F480^+ macrophages ([4]; MLNs, not ILNs, compared with controls, but not NaBut-treated mice): significantly decreased | regulatory T cells ([4]; MLNs, not skin-draining lymph nodes or spleen): expanded | Arg1+ Macs [4, 7]: 3.56 and 1.85 and 2.39 and 1.1 and 1.07 and 1.12 and 0.97 and 1.19 and 1.91 and 0.93 and 1.08 and 1.16 and 0.95 | F480+CD11b+ Macrophages [4, 7]: 5.85 and 7.28 and 6.98 and 8.63 and 11.2 and 7.11 and 5.47 and 7.35 and 5.84 and 3.45 and 4.72 and 5.77 and 7.09 | Th17 [4, 7]: 7.78 and 13.7 and 14.7 and 8.43 and 9.66 and 19.2 and 12 | Th17/Treg [4, 7]: 0.5329 and 0.6372 and 0.9423 and 0.493 and 0.6114 and 1.091 and 0.7843 | Treg [4, 7]: 14.6 and 21.5 and 15.6 and 17.1 and 15.8 and 17.6 and 15.3 | iNOS+ Macs [4, 7]: 0.64 and 1 and 0.46 and 0.71 and 0.58 and 0.74 and 0.6 and 0.68 and 1.54 and 0.88 and 0.65 and 0.69 | Th17 ([4]; Spleen Flow, individual mice): 0.83 and 1.07 and 1.3 and 0.97 and 1.12 and 1.08 and 1 and 1.34 | Th17/Treg ([4]; Spleen Flow, individual mice): 0.115 and 0.1219 and 0.1671 and 0.1127 and 0.16 and 0.145 and 0.1264 and 0.1603 | Treg ([4]; Spleen Flow, individual mice): 7.22 and 8.78 and 7.78 and 8.61 and 7 and 7.45 and 7.91 and 8.36 | Blood Neutrophils: CD11b+Ly6G+ %CD45 ([4]; blood, individual mice): 12.2 %CD45 and 10.2 %CD45 and 11.9 %CD45 and 16 %CD45 and 15.3 %CD45 and 6.9 %CD45 and 6.35 %CD45 and 13.7 %CD45 and 8 %CD45 and 10.6 %CD45 and 17.9 %CD45 and 2.21 %CD45 and 2.25 %CD45 and 7.63 %CD45 | Viability ([5]; 0.15 mM, normalized to untreated (100%) and Triton X-100 (0%)): 125.153% and 106.544% and 100.92% | Viability ([5]; 0.44 mM): 107.157% and 122.597% and 96.9325% | Viability ([5]; 1.33 mM): 115.337% and 91.7178% and 91.1043% | Viability ([5]; 4 mM): 117.28% and 100.204% and 101.431% | Viability ([5]; 12 mM): 121.575% and 99.0798% and 102.249% | cytotoxicity ([5]; even at 12 mM): no cytotoxicity

From publication PMC12333940, “A prometabolite strategy inhibits cardiometabolic disease in an ApoE^–/– murine model of atherosclerosis” (JCI Insight, 2025)
